This assay concerns the target T1, Peroxisome proliferator-activated receptor alpha (Homo sapiens, UniProt Q07869).
T1 sequence (Q07869 whole entry): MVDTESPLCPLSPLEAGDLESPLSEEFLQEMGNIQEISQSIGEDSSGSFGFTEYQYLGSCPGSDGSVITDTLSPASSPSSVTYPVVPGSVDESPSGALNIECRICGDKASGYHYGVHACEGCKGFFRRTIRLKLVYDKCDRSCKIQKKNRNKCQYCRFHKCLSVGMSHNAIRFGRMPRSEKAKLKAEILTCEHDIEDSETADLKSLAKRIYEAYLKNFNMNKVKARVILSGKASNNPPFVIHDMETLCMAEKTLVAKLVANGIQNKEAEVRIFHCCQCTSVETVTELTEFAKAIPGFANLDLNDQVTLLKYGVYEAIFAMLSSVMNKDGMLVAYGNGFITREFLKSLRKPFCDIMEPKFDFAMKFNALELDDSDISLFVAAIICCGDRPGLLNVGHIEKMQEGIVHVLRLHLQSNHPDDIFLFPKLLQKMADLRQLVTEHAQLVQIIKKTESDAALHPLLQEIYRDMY
Description: Agonist activity at PPARalpha (unknown origin).

Usually EC50 stands for the concentration that produces a half-maximal response. `CC(C)Cc1ccc(-c2nc(COc3ccc(CC(OC(C)C)C(=O)O)cc3)no2)cc1` (configuration not stated) had an EC50 of 40 nM.

Take `CC(C)OC(Cc1ccc(OCCc2noc(C3CCCCC3)n2)cc1)C(=O)O` (configuration not stated): the EC50 is 240 nM. This EC50 is about 6-fold higher than that of the compound before.

The record behind these values is ChEMBL document CHEMBL3046495, “CoMFA, ADVANCE CoMFA AND CoMSIA STUDIES ON THE OXADIAZOLE SUBSTITUTED -ISOPROPOXY PHENYLPROPIONIC ACIDS FOR PPAR AGONISTIC ACTIVITY” (Med Chem Res, 2004).
